From the NIST ThermoML archive (doi:10.1016/j.fluid.2018.05.028)
Numbers after ± are expanded uncertainties.

Experiment: xn = mol fraction of the nth substance listed
Conditions: 101 kPa, Liquid; for viscosity: Concentric cylinders viscometry; for speed of sound: Single path-length method; for mass density: Vibrating tube method

CCCCCCCCCCCCCCCC [hexadecane] + CCCO
Conditions	mass density [kg/m3]	speed of sound [m/s]	viscosity [mPa·s]
293.15 K, x2 = 0	773.35 ± 0.83	1357.4 ± 1	3.408 ± 0.023
293.15 K, x2 = 0.1	773.48 ± 0.83	1349.3 ± 0.96	3.214 ± 0.021
293.15 K, x2 = 0.2	774.05 ± 0.82	1342.3 ± 0.91	3.093 ± 0.02
293.15 K, x2 = 0.3	774.88 ± 0.82	1334.9 ± 0.86	2.99 ± 0.019
293.15 K, x2 = 0.4	776.01 ± 0.82	1326.8 ± 0.81	2.916 ± 0.018
293.15 K, x2 = 0.5	777.51 ± 0.82	1317.5 ± 0.76	2.845 ± 0.017
293.15 K, x2 = 0.6	779.56 ± 0.82	1306.4 ± 0.71	2.776 ± 0.017
293.15 K, x2 = 0.7	782.34 ± 0.81	1293.2 ± 0.66	2.671 ± 0.016
293.15 K, x2 = 0.8	786.35 ± 0.81	1275.7 ± 0.62	2.541 ± 0.015
293.15 K, x2 = 0.9	792.43 ± 0.81	1252.8 ± 0.57	2.388 ± 0.014
298.15 K, x2 = 0	769.87 ± 0.83	1338.5 ± 1	3.035 ± 0.021
298.15 K, x2 = 0.1	769.92 ± 0.83	1330.3 ± 0.96	2.858 ± 0.019
298.15 K, x2 = 0.2	770.46 ± 0.82	1323.2 ± 0.91	2.754 ± 0.018
298.15 K, x2 = 0.3	771.25 ± 0.82	1315.8 ± 0.86	2.665 ± 0.017
298.15 K, x2 = 0.4	772.34 ± 0.82	1307.7 ± 0.81	2.596 ± 0.017
298.15 K, x2 = 0.5	773.81 ± 0.82	1298.5 ± 0.76	2.526 ± 0.016
298.15 K, x2 = 0.6	775.81 ± 0.82	1287.5 ± 0.71	2.463 ± 0.015
298.15 K, x2 = 0.7	778.55 ± 0.81	1274.5 ± 0.66	2.374 ± 0.015
298.15 K, x2 = 0.8	782.5 ± 0.81	1257.4 ± 0.62	2.264 ± 0.014
298.15 K, x2 = 0.9	788.52 ± 0.81	1234.9 ± 0.57	2.131 ± 0.013
303.15 K, x2 = 0	766.4 ± 0.83	1319.8 ± 1	2.708 ± 0.019
303.15 K, x2 = 0.1	766.38 ± 0.83	1311.4 ± 0.96	2.55 ± 0.018
303.15 K, x2 = 0.2	766.87 ± 0.82	1304.3 ± 0.91	2.45 ± 0.017
303.15 K, x2 = 0.3	767.62 ± 0.82	1296.9 ± 0.86	2.376 ± 0.016
303.15 K, x2 = 0.4	768.67 ± 0.82	1288.8 ± 0.81	2.314 ± 0.015
303.15 K, x2 = 0.5	770.09 ± 0.82	1279.7 ± 0.76	2.244 ± 0.015
303.15 K, x2 = 0.6	772.04 ± 0.82	1268.8 ± 0.71	2.187 ± 0.014
303.15 K, x2 = 0.7	774.73 ± 0.81	1256 ± 0.66	2.108 ± 0.014
303.15 K, x2 = 0.8	778.64 ± 0.81	1239.2 ± 0.62	2.012 ± 0.013
303.15 K, x2 = 0.9	784.59 ± 0.81	1217.2 ± 0.57	1.89 ± 0.013
308.15 K, x2 = 0	762.95 ± 0.83	1301.3 ± 1	2.432 ± 0.017
308.15 K, x2 = 0.1	762.83 ± 0.83	1292.8 ± 0.96	2.288 ± 0.016
308.15 K, x2 = 0.2	763.27 ± 0.82	1285.6 ± 0.91	2.201 ± 0.016
308.15 K, x2 = 0.3	763.98 ± 0.82	1278.2 ± 0.86	2.13 ± 0.015
308.15 K, x2 = 0.4	764.98 ± 0.82	1270.1 ± 0.81	2.073 ± 0.014
308.15 K, x2 = 0.5	766.36 ± 0.82	1261 ± 0.76	2.01 ± 0.014
308.15 K, x2 = 0.6	768.26 ± 0.82	1250.2 ± 0.71	1.952 ± 0.013
308.15 K, x2 = 0.7	770.89 ± 0.82	1237.6 ± 0.66	1.88 ± 0.013
308.15 K, x2 = 0.8	774.74 ± 0.81	1221.1 ± 0.62	1.795 ± 0.012
308.15 K, x2 = 0.9	780.63 ± 0.81	1199.5 ± 0.57	1.687 ± 0.012
313.15 K, x2 = 0	759.49 ± 0.83	1283.1 ± 1	2.199 ± 0.016
313.15 K, x2 = 0.1	759.29 ± 0.83	1274.3 ± 0.96	2.067 ± 0.015
313.15 K, x2 = 0.2	759.67 ± 0.82	1267.1 ± 0.91	1.989 ± 0.015
313.15 K, x2 = 0.3	760.33 ± 0.82	1259.6 ± 0.86	1.925 ± 0.014
313.15 K, x2 = 0.4	761.29 ± 0.82	1251.5 ± 0.81	1.871 ± 0.013
313.15 K, x2 = 0.5	762.61 ± 0.82	1242.4 ± 0.76	1.812 ± 0.013
313.15 K, x2 = 0.6	764.45 ± 0.82	1231.7 ± 0.71	1.756 ± 0.013
313.15 K, x2 = 0.7	767.03 ± 0.82	1219.3 ± 0.66	1.691 ± 0.012
313.15 K, x2 = 0.8	770.82 ± 0.81	1203.1 ± 0.62	1.614 ± 0.012
313.15 K, x2 = 0.9	776.63 ± 0.81	1182 ± 0.57	1.515 ± 0.011
318.15 K, x2 = 0	–	1265 ± 1	1.996 ± 0.015
318.15 K, x2 = 0.1	–	1256 ± 0.96	1.874 ± 0.014
318.15 K, x2 = 0.2	–	1248.7 ± 0.91	1.8 ± 0.014
318.15 K, x2 = 0.3	–	1241.2 ± 0.86	1.743 ± 0.013
318.15 K, x2 = 0.4	–	1233 ± 0.81	1.69 ± 0.013
318.15 K, x2 = 0.5	–	–	1.634 ± 0.012
318.15 K, x2 = 0.6	–	–	1.58 ± 0.012
318.15 K, x2 = 0.7	–	–	1.519 ± 0.012
318.15 K, x2 = 0.8	–	–	1.448 ± 0.011
318.15 K, x2 = 0.9	–	–	1.357 ± 0.011
